Measured values published in patent publication US11897865B2, “ABHD12 inhibitors and methods of making and using same” (THE SCRIPPS RESEARCH INSTITUTE, priority 2018, dated 2024).

Each molecule was assayed against T1, ABHD12 (Mus musculus, UniProt Q99LR1) (assay: Gel-based competitive ABPP, JJH350 probe vs brain membrane proteome). Conditions: 10 μM compound, read-out: % Inhibition @ 10 μM (ABPP gel_JJH350 probe vs brain mem).
T1 construct: from tissue; host or cells: brain membrane proteome
T1 sequence (Q99LR1 1-398): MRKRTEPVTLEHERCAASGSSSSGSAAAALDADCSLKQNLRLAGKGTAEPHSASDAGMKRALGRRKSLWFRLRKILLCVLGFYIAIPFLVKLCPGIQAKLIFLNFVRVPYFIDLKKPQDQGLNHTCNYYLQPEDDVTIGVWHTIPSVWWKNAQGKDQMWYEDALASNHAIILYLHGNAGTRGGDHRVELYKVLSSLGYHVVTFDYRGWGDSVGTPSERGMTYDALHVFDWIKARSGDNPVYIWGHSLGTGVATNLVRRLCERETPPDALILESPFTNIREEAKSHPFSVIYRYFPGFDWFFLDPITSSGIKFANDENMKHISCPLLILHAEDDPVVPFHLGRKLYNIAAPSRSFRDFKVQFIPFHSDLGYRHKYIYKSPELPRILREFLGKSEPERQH
Format: biochemical
Description: Gel-Based Competitive ABPP for In Vitro Inhibitor Treatment of Proteomes:
Gel-based ABPP assays were performed as previously reported (Bachovchin, D. A. et al. Superfamily-wide portrait of serine hydrolase inhibition achieved by library-versus-library screening. Proc. Natl. Acad. Sci. U. S. A. 2010, 107, 20941-20946). Cell or tissue proteomes (50 μL, 1 mg/mL) were treated with either FP-Rh (1 μM final concentration) or JJH350 (2 μM final concentration) for 45 min at 37° C. For FP-Rh labeled samples, the reactions were quenched by adding 20 μL of 4× SDS-PAGE loading buffer. The 30 μL of the quenched samples were loaded on gel for analysis. For (S)-1,3-dioxo-7-(4-phenoxybenzoyl)hexahydroimidazo[1,5-a]pyrazin-2(3H)-yl 4-(4-(prop-2-yn-1-yloxy)phenyl)piperazine-1-carboxylate (JJH350)-labeled samples, copper-catalyzed azide-alkyne cycloaddition (CuAAC) was used for visualizing the labeled proteins following the reported protocol. Briefly, rhodamine-PEG3-N3 (1 μL/reaction, 1.25 mM in DMSO), CuSO4 (1 μL/reaction, 50 mM in H2O), TBTA (3 μL/reaction, 1.7 mM in DMSO/t-BuOH [1:4, v/v]) and tris(2-carboxyethyi)phosphine (TCEP) (1 μL/reaction, 50 mM in H2O, freshly prepared) were premixed. 6 μL of this click reagent mixture was immediately added to each JJH350-labeled samples (50 μL, 1 mg/mL) and incubated for 1 h at room temperature. The reactions were quenched by adding 20 μL of 4× SDS-PAGE loading buffer. The 40 μL of the quenched samples were loaded on a gel for analysis.
After separation by SDS-PAGE (10% acrylamide), samples were visualized by in-gel fluorescence scanning using the ChemiDoc MP system (Bio-Rad). Band intensities were quantified using the Image Lab (5.2.1) software (Bio-Rad).

Q: Which inhibition at 10 µM does the source give for `Fc1ccc(N2CCC(NC(=S)Nc3cccnc3)CC2)nc1` [Example 12, 1-(1-(5-Fluoropyridin-2-yl)piperidin-4-yl)-3-(pyridin-3-yl)thiourea] here?
A: ≥ 75%

Q: How did the inhibition at 10 µM turn out when `FC(F)(F)c1cnc(N2CCC(NC(=S)Nc3ccccc3)CC2)c(Cl)c1` [Example 9, 1-(1-(3-Chloro-5-(trifluoromethyl)pyridin-2-yl)piperidin-4-yl)-3-phenylthiourea] was run?
A: ≥ 75%

Q: Which inhibition at 10 µM does the source give for `FC(F)(F)c1cc(Cl)cnc1N1CCC(NC(=S)Nc2cccnc2)CC1` [Example 18, 1-(1-(5-Chloro-3-(trifluoromethyl)pyridin-2-yl)piperidin-4-yl)-3-(pyridin-3-yl)thiourea] here?
A: ≥ 75%

Q: With `Fc1ccc(OC(F)(F)F)cc1Oc1ccnc(N2CCC(NC(=S)Nc3cccnc3)CC2)c1` [Example 58, 1-(1-(4-(2-Fluoro-5-(trifluoromethoxy)phenoxy)pyridin-2-yl)piperidin-4-yl)-3-(pyridin-3-yl)thiourea] as the molecule, how does the inhibition at 10 µM read?
A: ≥ 75%

Q: Which inhibition at 10 µM does the source give for `Fc1cc(Oc2ccnc(N3CCC(NC(=S)Nc4cccnc4)CC3)c2)ccc1OC(F)(F)F` [Example 56, 1-(1-(4-(3-Fluoro-4-(trifluoromethoxy)phenoxy)pyridin-2-yl)piperidin-4-yl)-3-(pyridin-3-yl)thiourea] here?
A: ≥ 75%

Q: Which inhibition at 10 µM does the source give for `FC(F)(F)c1cnc(N2CCCC(NC(=S)Nc3cccnc3)CC2)c(Cl)c1` (stereo not shown) [Example 80, 1-(1-(3-Chloro-5-(trifluoromethyl)pyridin-2-yl)azepan-4-yl)-3-(pyridin-3-yl)thiourea] here?
A: 50 to 75%

Q: For `Fc1cc(C(F)(F)F)cnc1N1CCC(NC(=S)Nc2cccnc2)CC1` [Example 21, 1-(1-(3-Fluoro-5-(trifluoromethyl)pyridin-2-yl)piperidin-4-yl)-3-(pyridin-3-yl)thiourea], which inhibition at 10 µM is on record?
A: ≥ 75%

Q: Which inhibition at 10 µM does the source give for `FC(F)(F)Oc1ccc(Oc2cc(N3CCC(NC(=S)Nc4cccnc4)CC3)nc(C(F)(F)F)c2)cc1` [Example 60, 1-(Pyridin-3-yl)-3-(1-(4-(4-(trifluoromethoxy)phenoxy)-6-(trifluoromethyl)pyridin-2-yl)piperidin-4-yl)thiourea] here?
A: 0 to 25%

Q: How did the inhibition at 10 µM turn out when `S=C(Nc1cccnc1)NC1CCN(c2ccc(Cl)nc2)CC1` [Example 19, 1-(1-(6-Chloropyridin-3-yl)piperidin-4-yl)-3-(pyridin-3-yl)thiourea] was run?
A: 0 to 25%

Q: Which inhibition at 10 µM does the source give for `S=C(Nc1cccnc1)NC1CCN(c2cc(OCCC3CC3)ccn2)CC1` [Example 33, 1-(1-(4-(2-Cyclopropylethoxy)pyridin-2-yl)piperidin-4-yl)-3-(pyridin-3-yl)thiourea] here?
A: ≥ 75%

Q: How did the inhibition at 10 µM turn out when `FC(F)(F)c1cnc(NCCCCCNC(=S)Nc2cccnc2)c(Cl)c1` [Example 81, 1-(5-((3-Chloro-5-(trifluoromethyl)pyridin-2-yl)amino)pentyl)-3-(pyridin-3-yl)thiourea] was run?
A: ≥ 75%

Q: For `FC(F)(F)Oc1cccc(-c2ccnc(N3CCC(NC(=S)Nc4cccnc4)CC3)c2)c1` [Example 23, 1-(Pyridin-3-yl)-3-(1-(4-(3-(trifluoromethoxy)phenyl)pyridin-2-yl)piperidin-4-yl)thiourea], which inhibition at 10 µM is on record?
A: ≥ 75%

Q: With `COc1ccnc(N2CCC(NC(=S)Nc3cccnc3)CC2)c1` [Example 44, 1-(1-(4-Methoxypyridin-2-yl)piperidin-4-yl)-3-(pyridin-3-yl)thiourea] as the molecule, how does the inhibition at 10 µM read?
A: 50 to 75%

Same assay, conditions: at 2 uM compound

Q: `C#Cc1ccc(N2CCC(NC(=S)Nc3cccnc3)CC2)nc1` [Example 10, 1-(1-(5-Ethynylpyridin-2-yl)piperidin-4-yl)-3-(pyridin-3-yl)thiourea] was tested. Which “% Inhibition (ABPP gel_JJH350 probe vs brain mem), at 2 uM” value did it give?
A: C (at 2 uM) (% inhibition is greater than or equal to 25% and less than 50%)

Q: For `C#Cc1cnc(N2CCC(NC(=S)Nc3cccnc3)CC2)c(Cl)c1` [Example 20, 1-(1-(3-Chloro-5-ethynylpyridin-2-yl)piperidin-4-yl)-3-(pyridin-3-yl)thiourea], which “% Inhibition (ABPP gel_JJH350 probe vs brain mem), at 2 uM” value is on record?
A: B (at 2 uM) (% inhibition is greater than or equal to 50% and less than 75%)

Same assay, conditions: read-out: IC50 (ABPP gel_JJH350 probe vs brain mem)

Q: Which IC50 does the source give for `COc1ccnc(N2CCC(NC(=S)Nc3cccnc3)CC2)c1` [Example 44, 1-(1-(4-Methoxypyridin-2-yl)piperidin-4-yl)-3-(pyridin-3-yl)thiourea] here?
A: 1 to 25 µM
